In US20050130989A1, “N-arylheteroaromatic products compositions containing them and use thereof” (Aventis Pharma S. A., priority 2003, published 2005) one finds IC50 data, which are given here for 36 molecules.

Counter-ions that a name gives are not always drawn. Like-named read-outs stand apart in the source and are kept apart here. Where only a bound is given, the exact number is not on record here.

Test [1] concerns HCT116 cells. As to the kind of experiment: Inhibition of proliferation of the human colon tumor line HCT116 ([14C]-thymidine incorporation). Particulars: Homo sapiens, read-out: Inhibition of HCT116 proliferation IC 50 (μm). It counts as cell-based. In short, it runs like this:
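HCT116 cells (5000/well) in DMEM with 10% fetal calf serum incubated 48 h at 37° C with [14C]-thymidine (0.1 μCi/well) and compound up to 10 μm (DMSO ≤0.5%). Incorporated radioactivity counted; IC50 is concentration cutting radioactivity by 50% versus untreated control.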
For orientation: Incorporation of labelled thymidine or its analogues reports DNA synthesis.

Test [2] has as its target T1, tubulin (Sus scrofa, UniProt P02550+P02554).
T1 construct: Tubulin is purified from pig brain according to published methods; from tissue; host or cells: pig brain
The test is described as follows: Evaluation of the inhibition of tubulin polymerization (turbidimetry). It counts as biochemical, pig. Particulars: tubulin 10 μm (1 mg/ml), 37° C., turbidity at 350 nm; concentration that inhibits the rate of polymerization by 50%; read-out: Inhibition of tubulin polymerization IC 50 (μm). The method, boiled down: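 Pig brain tubulin (>95% pure), 10 μm in MES pH 6.8/30% glycerol buffer plus 1 mM GTP and 6 mM MgCl2, with compound at 0.5–10 μm added before polymerization. Polymerization triggered by shift from 6° C to 37° C, followed by turbidity at 350 nm; IC50 is 50% inhibition of polymerization rate.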

Where [3] appears, read: HCT-116, 48 h, 48 hours at 37° C.

T1 sequence (P02550 whole entry): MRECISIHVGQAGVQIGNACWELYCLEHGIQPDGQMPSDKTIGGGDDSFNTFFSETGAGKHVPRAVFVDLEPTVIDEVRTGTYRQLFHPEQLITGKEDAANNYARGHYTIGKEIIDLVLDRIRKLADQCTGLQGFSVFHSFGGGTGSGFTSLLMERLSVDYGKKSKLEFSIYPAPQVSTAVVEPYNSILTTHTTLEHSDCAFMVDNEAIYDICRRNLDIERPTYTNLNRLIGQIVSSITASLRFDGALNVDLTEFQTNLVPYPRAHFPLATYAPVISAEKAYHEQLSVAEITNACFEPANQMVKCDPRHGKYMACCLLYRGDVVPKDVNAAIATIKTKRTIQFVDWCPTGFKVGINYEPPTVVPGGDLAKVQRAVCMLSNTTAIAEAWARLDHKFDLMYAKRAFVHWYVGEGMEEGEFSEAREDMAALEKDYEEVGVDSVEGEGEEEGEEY
T1 sequence (P02554 whole entry): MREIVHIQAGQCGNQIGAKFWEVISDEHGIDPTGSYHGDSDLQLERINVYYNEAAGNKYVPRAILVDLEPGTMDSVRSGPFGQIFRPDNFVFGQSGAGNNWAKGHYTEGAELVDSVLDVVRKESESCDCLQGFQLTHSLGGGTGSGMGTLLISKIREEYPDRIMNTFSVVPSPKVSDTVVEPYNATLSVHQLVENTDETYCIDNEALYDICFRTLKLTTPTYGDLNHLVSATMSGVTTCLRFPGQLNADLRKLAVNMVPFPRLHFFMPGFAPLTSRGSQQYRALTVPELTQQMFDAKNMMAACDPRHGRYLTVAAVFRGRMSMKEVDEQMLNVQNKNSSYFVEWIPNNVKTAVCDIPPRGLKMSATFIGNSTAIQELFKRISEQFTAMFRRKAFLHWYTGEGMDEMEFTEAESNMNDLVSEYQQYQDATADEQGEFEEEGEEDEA

On to `NC(=O)c1cccc(N2CCN(C(=O)c3cccn3-c3ccccc3)CC2)c1` [Example E57, 3-[4-(1-Phenyl-1H-pyrrole-2-carbonyl)piperazin-1-yl]benzamide], for which the figures for the IC50 in test [1] (setting [3]) and in test [2] were 89.8 nM and 2000 nM, respectively.

`COc1cccc(-n2nc(C)cc2C(=O)N2CCN(c3ccc4c(c3)OCCO4)CC2)c1` [3/140]: the IC50 in test [1] (setting [3]) was 2970 nM; in test [2], below 25000 nM.

Turning to `Cc1cccc(-n2nc(C)cc2C(=O)N2CCN(c3ccc(Cl)c(Cl)c3)CC2)c1` [3/113], the IC50 was determined as 75 nM in test [1] (setting [3]) and 1200 nM in test [2].

As to `COc1ccccc1N1CCN(C(=O)c2cc(C)nn2-c2cccc(F)c2)CC1` [3/90], the IC50 in test [1] (setting [3]) came out at 33 nM; in test [2], 3000 nM.

For `COc1cccc(-n2nc(C)cc2C(=O)N2CCN(c3cccc(Cl)c3)CC2)c1` [3/35], the IC50 in test [1] (setting [3]) turned out to be 284 nM; in test [2], 5000 nM.

For the molecule `Cc1cc(C(=O)N2CCN(c3cccc(C)c3C)CC2)n(-c2ccc(F)cc2)n1` [3/148], the IC50 was determined as 198 nM in test [1] (setting [3]) and 1500 nM in test [2].

With `Cc1cccc(N2CCN(C(=O)c3cc(C)nn3-c3ccccc3)CC2C)c1` (stereo not drawn) [3/109], the IC50 is 4330 nM in test [1] (setting [3]) and 8000 nM in test [2].

On to `CCc1ccccc1N1CCN(C(=O)c2cc(C)nn2-c2cccc(F)c2)CC1` [3/95], for which the IC50 in test [1] (setting [3]) stood at 164 nM; in test [2], 3000 nM.

Regarding `Cc1cccc(-n2nc(C)cc2C(=O)N2CCN(c3cccc4ccccc34)CC2)c1` [3/32], the values for the IC50 in test [1] (setting [3]) and in test [2] were 556 nM and 3000 nM, respectively.

Regarding `COc1cc(OC)cc(N2CCN(C(=O)c3cc(-c4ccc[nH]4)nn3-c3ccccc3)CC2)c1` [Example E91, [4-(3,5-Dimethoxyphenyl)piperazin-1-yl][2-phenyl-5-(1H-pyrrol-2-yl)-2H-pyrazol-3-yl]methanone], the IC50 in test [1] (setting [3]) was found to be 10.5 nM; in test [2], 1000 nM.

With `Cc1cccc(-n2nc(C)cc2C(=O)N2CCN(c3ccccc3C(F)(F)F)CC2)c1` [3/55], the results for the IC50 in test [1] (setting [3]) and in test [2] were 1350 nM and 5500 nM, respectively.

Regarding `Cc1cccc(-n2nc(C)cc2C(=O)N2CCN(c3cccc(C(F)(F)F)c3)CC2)c1` [3/46], the IC50 came to 197 nM in test [1] (setting [3]) and 8000 nM in test [2].

Take `Cc1cc(C(=O)N2CCN(c3cccc(C(F)(F)F)c3)CC2)n(-c2ccc(Cl)cc2)n1` [3/72]: the IC50 in test [1] (setting [3]) was 143 nM; in test [2], 7000 nM.

Regarding `Cc1cccc(N2CCN(C(=O)c3cc(C)nn3-c3cccc(F)c3)CC2)c1` [3/19], the IC50 in test [1] (setting [3]) came to 17 nM; in test [2], 1800 nM.

Turning to `COc1cccc(-n2nc(C)cc2C(=O)N2CCN(c3cc(Cl)ccc3OC)CC2)c1` [3/5], the IC50 turned out to be 238 nM in test [1] (setting [3]) and 3000 nM in test [2].

Regarding `COc1cc(OC)cc(N2CCN(C(=O)c3cc(C(F)(F)F)nn3-c3cccc(C#N)c3)CC2)c1` [Example E56, 3-{5-[4-(3,5-Dimethoxyphenyl)piperazine-1-carbonyl]-3-trifluoromethylpyrazol-1-yl}benzonitrile], the IC50 in test [1] (setting [3]) came to 145 nM; in test [2] it was 1100 nM.

For `COc1cccc(N2CCN(C(=O)c3cc(C)nn3-c3ccccc3F)CC2)c1` [3/15], the IC50 was 4 nM in test [1] (setting [3]) and 2000 nM in test [2].

As for `CCc1ccccc1N1CCN(C(=O)c2cc(C)nn2-c2cccc(OC)c2)CC1` [3/136], the figures for the IC50 in test [1] (setting [3]) and in test [2] were 932 nM and 12500 nM, respectively.

Regarding `Cc1cc(C(=O)N2CCN(c3cccc4ccccc34)CC2)n(-c2cccc(F)c2)n1` [3/20], the results for the IC50 in test [1] (setting [3]) and in test [2] were 1850 nM and 3000 nM, respectively.

For `O=C(c1cc(-c2ccsc2)nn1-c1ccccc1)N1CCN(c2cccc(Cl)c2)CC1` [Example E68, [4-(3-Chlorophenyl)piperazin-1-yl][2-phenyl-5-(thiophen-3-yl)-2H-pyrazol-3-yl]methanone], the figures for the IC50 in test [1] (setting [3]) and in test [2] were 339 nM and 1400 nM, respectively.

Consider `Cc1cc(C(=O)N2CCN(c3cccc(Cl)c3Cl)CC2)n(-c2ccccc2)n1` [3/36], for which the IC50 amounted to 119 nM in test [1] (setting [3]) and 1800 nM in test [2].

Take `Cc1cc(C(=O)N2CCN(c3cccc(Cl)c3)CC2)n(-c2ncccc2C#N)n1` [Example E38, 2-{5-[4-(3-Chlorophenyl)piperazine-1-carbonyl]-3-methylpyrazol-1-yl}nicotinonitrile]: the IC50 in test [1] (setting [3]) was found to be 19.6 nM; in test [2], 4000 nM.

As for `COc1ccc(Cl)cc1N1CCN(C(=O)c2cc(C)nn2-c2ccccc2)CC1` [3/83], the IC50 in test [1] (setting [3]) came to 6.6 nM; in test [2], 1500 nM.

For the molecule `Cc1cc(C(=O)N2CCN(c3cccc(C(F)(F)F)c3)CC2)n(-c2cccc(F)c2)n1` [3/91], the IC50 in test [1] (setting [3]) amounted to 14 nM; in test [2], 1500 nM.

Regarding `Cc1cc(C(=O)N2CCN(c3ccc4c(c3)OCCO4)CC2)n(-c2ccc(F)cc2)n1` [3/62], the IC50 came to 71 nM in test [1] (setting [3]) and 6000 nM in test [2].

In the case of `CNc1cccc(N2CCN(C(=O)c3cc(C)nn3-c3ccccc3)CC2)c1` [Example E34, [4-(3-Methylaminophenyl)piperazin-1-yl](5-methyl-2-phenyl-2H-pyrazol-3-yl)-methanone], the IC50 in test [1] (setting [3]) was found to be 14 nM; in test [2] it was 800 nM.

As to `Cc1cc(C(=O)N2CCN(c3ccccc3)CC2)n(-c2cccc(F)c2)n1` [3/89], the IC50 is 14 nM in test [1] (setting [3]) and 2200 nM in test [2].

In the case of `Cc1cc(CN2CCN(c3cccc(Cl)c3)CC2)n(-c2ccccc2)n1` [Example E14, [4-(3-chlorophenyl)piperazin-1-yl](5-methyl-2-phenyl-2H-pyrazol-3-yl)methane], the IC50 in test [1] (HCT-116, 48 hours at 37° C.) is 3080 nM; in test [2] it was 12000 nM.

With `Cc1cc(C(=O)N2CCN(c3ccccc3Cl)CC2)n(-c2ccccc2)n1` [3/112], the IC50 is 1520 nM in test [1] (setting [3]) and 15000 nM in test [2].

For the molecule `Cc1cc(C(=O)N2CCN(c3ccc(Cl)cc3)CC2)n(-c2cccc(Cl)c2)n1` [3/69], the results for the IC50 in test [1] (setting [3]) and in test [2] were 347 nM and 18000 nM, respectively.

Take `COc1cc(OC)cc(N2CCN(C(=O)c3cc(C=O)nn3-c3ccccc3)CC2)c1` [Example E100, 5-[4-(3,5-Dimethoxyphenyl)piperazine-1-carbonyl]-1-phenyl-1H-pyrazole-3-carboxaldehyde]: the IC50 in test [1] (setting [3]) came out at 4.1 nM; in test [2], 500 nM.

As for `Cc1cccc(-n2nc(C)cc2C(=O)N2CCN(c3ccc(C)c(C)c3)CC2)c1` [3/30], the IC50 in test [1] (setting [3]) is 729 nM; in test [2] it was 2900 nM.

Consider `COc1cccc(-n2nc(C)cc2C(=O)N2CCN(c3cccc(C)c3C)CC2)c1` [3/135], for which the IC50 in test [1] (setting [3]) was determined as 321 nM; in test [2], 6000 nM.

As to `CNCCNC(=O)c1cccc(N2CCN(C(=O)c3cc(C)nn3-c3ccccc3)CC2)c1` [Example E110, N-(2-Methylaminoethyl)-3-[4-(5-methyl-2-phenyl-2H-pyrazole-3-carbonyl)piperazin-1-yl]benzamide], the IC50 turned out to be 1170 nM in test [1] (setting [3]) and 12000 nM in test [2].

As to `Cc1cc(C(=O)N2CCN(c3cccc(C(C)O)c3)CC2)n(-c2ccccc2)n1` (stereo not drawn) [Example E39, {4-[3-(1-Hydroxyethyl)phenyl]piperazin-1-yl}(5-methyl-2-phenyl-2H-pyrazol-3-yl)methanone hydrochloride], the IC50 in test [1] (setting [3]) turned out to be 71.9 nM; in test [2], 2500 nM.

`Cc1cccc(-n2nc(C)cc2C(=O)N2CCN(c3ccccc3)CC2)c1` [3/44]: the IC50 in test [1] (setting [3]) is 47 nM; in test [2], 2000 nM.
